Test systems include DMS-273; KM-20L2; DLD-1; HOP-18; M19-MEL; XF498; DMS-114; SNB-78; RXF 631.
Experiment in all cases: NCI tumour cell line growth inhibition, 48 h

Results on 19 compounds are retold here after ChEMBL document CHEMBL1201862, “PubChem BioAssay data set” (2004).

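Values below derive from 48-hour exposures of cells grown in 96-well plates, with endpoints linearly interpolated between the two concentrations bracketing the appropriate inhibition level. GI50 marks 50% less growth.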 Active and inactive are the calls of the source. Cut-off read from the data, not from the text of the source: active = GI50 up to about 1.1 µM and inactive = higher. Some results are limits rather than exact numbers.

As to `Cn1cc(C(=O)NCCC(=N)N)cc1NC(=O)C1=[N+](C)C=C(NC(=O)c2cccc(C(=O)NC3=CC(C(=O)Nc4cc(C(=O)NCCC(=N)N)cn4C)=[N+](C)C3)c2)C1`, the GI50 in the test with DMS-273 is 59.8 µM (inactive); in the test on KM-20L2, > 100 µM (inactive); in the test on DLD-1 it was > 100 µM (inactive); with HOP-18, > 100 µM (inactive); in the test with M19-MEL it was > 100 µM (inactive); in the test with XF498, > 100 µM (inactive). Moreover, the GI50 with DMS-114 was 70.6 µM (inactive).
For `O=CN/C=C/c1cccc(O)c1`, the GI50 in the test with DMS-273, in the test on SNB-78, in the test on KM-20L2, in the test with DLD-1, in the test on HOP-18 and with M19-MEL was > 100 µM (inactive) in each case. For the same compound, the GI50 in the test on XF498 and in the test with DMS-114 was > 100 µM (inactive) throughout.
Regarding `O=C(/C(=C\c1ccccc1)CN1CCOCC1)c1ccc(Br)cc1`, the GI50 in the test on DMS-273 is 2.88 µM (inactive); in the test on SNB-78, 5.61 µM (inactive); in the test with KM-20L2, 2.65 µM (inactive); in the test with DLD-1, 1.51 µM (inactive); in the test with HOP-18, 1.81 µM (inactive); in the test on M19-MEL it was 1.73 µM (inactive). Besides, the figures for the GI50 in the test on XF498 and with DMS-114 were 4.89 µM (inactive) and 1.78 µM (inactive), respectively.
Turning to `CC(=O)OC1COC(N2CCc3cc([N+](=O)[O-])ccc32)C(OC(C)=O)C1OC(C)=O` (stereo not drawn), the GI50 in the test with DMS-273 was > 100 µM (inactive); in the test on SNB-78, > 100 µM (inactive); in the test on KM-20L2, > 100 µM (inactive); with DLD-1, > 100 µM (inactive); with M19-MEL, > 100 µM (inactive); in the test with XF498 it was 50.4 µM (inactive). In addition, the GI50 with DMS-114 was > 100 µM (inactive).
Consider `O=C1CCC(=O)N1Sc1ccccc1`, for which the GI50 with DMS-273, in the test with SNB-78, with KM-20L2, with DLD-1, with M19-MEL and in the test on RXF 631 was > 100 µM (inactive) each time. Further, the GI50 in the test on DMS-114 was > 100 µM (inactive).
`Cc1cc(C)c(N)c(C)c1N`: the GI50 in the test on DMS-273, in the test with SNB-78, with KM-20L2, in the test on DLD-1, in the test with HOP-18 and with M19-MEL was > 100 µM (inactive) throughout. The GI50 in the test on DMS-114 was > 100 µM (inactive).
Turning to `CNC(=S)OCCC(C)CCCC(C)C` (stereo not drawn), the GI50 in the test with DMS-273 is 16.8 µM (inactive); in the test on SNB-78, 18.8 µM (inactive); in the test on KM-20L2, 16.3 µM (inactive); with DLD-1, 15.5 µM (inactive); in the test on HOP-18, 15.3 µM (inactive); in the test with M19-MEL, 19.3 µM (inactive). For the same compound, in the test on XF498, the GI50 was 17 µM (inactive).
In the case of `C=C(CN(C)C)C(=O)c1cc(C)ccc1C`, the GI50 in the test on DMS-273 was 11.7 µM (inactive); in the test on SNB-78 it was 26.9 µM (inactive); in the test with KM-20L2, 23 µM (inactive); in the test with DLD-1, 2.28 µM (inactive); with HOP-18, 4.13 µM (inactive); in the test on M19-MEL it was 4.81 µM (inactive). In addition, the GI50 is 17.9 µM (inactive) in the test on XF498 and 5.02 µM (inactive) in the test with DMS-114.
Turning to `NCCCNc1ccc2c3c(nn2CCNCCO)-c2c(O)ccc(O)c2C(=O)c13`, the GI50 is 0.366 µM (active) in the test with DMS-273; 1.42 µM (inactive) in the test with SNB-78; 2.89 µM (inactive) with KM-20L2; 4.08 µM (inactive) with DLD-1; 2.32 µM (inactive) with HOP-18; 1.5 µM (inactive) in the test with M19-MEL. Moreover, the GI50 in the test on XF498 was 0.125 µM (active); in the test on DMS-114, 0.561 µM (active).
Consider `CC(C(=O)N1C(=O)N(C(=O)C(C)C(O)c2ccccc2)C2CCCCC21)C(O)c1ccccc1` (stereo not drawn), for which the GI50 was > 100 µM (inactive) with DMS-273; > 100 µM (inactive) in the test with SNB-78; > 100 µM (inactive) in the test on KM-20L2; 83.8 µM (inactive) in the test with M19-MEL; 79.6 µM (inactive) in the test with XF498.
Consider `COc1ccc(CCN2CCC(C#N)(c3ccc(OC)c(OC)c3)CC2)cc1OC`, for which the GI50 in the test on DMS-273 is > 100 µM (inactive); in the test with KM-20L2, > 100 µM (inactive); in the test on DLD-1, > 100 µM (inactive); in the test with HOP-18, > 100 µM (inactive); with M19-MEL it was > 100 µM (inactive); with XF498, 50.2 µM (inactive). The GI50 in the test on DMS-114 was 60.4 µM (inactive).
For `COc1ccc(/C=C2/C(=O)N(C(=O)c3ccccc3O)N=C2C)cc1OC`, the GI50 in the test with SNB-78 was 0.0453 µM (active); in the test on KM-20L2, 24.9 µM (inactive); in the test with DLD-1, 0.23 µM (active); in the test with M19-MEL it was 1.29 µM (inactive); in the test with XF498 it was 1.68 µM (inactive); in the test on DMS-114, 0.301 µM (active).
Turning to `CC(=O)OC1(C#N)CC2OC1C1C2N1C(=O)c1ccccc1` (stereo not drawn), the GI50 with SNB-78, in the test with KM-20L2, in the test with DLD-1, with M19-MEL, with XF498 and in the test on RXF 631 was > 100 µM (inactive) each time. In addition, in the test with DMS-114, the GI50 is > 100 µM (inactive).
`CC(=O)/C=C1/c2ccccc2N(C(C)=O)C1O` (stereo not drawn): the GI50 in the test on DMS-273, with SNB-78, in the test with KM-20L2, in the test on DLD-1, in the test with HOP-18 and with M19-MEL was > 100 µM (inactive) each time. Further, the GI50 with DMS-114 was > 100 µM (inactive).
Consider `COc1ccc(C2=C(Cl)c3cc(OC)c(OC)cc3C2OC)cc1OC` (stereo not drawn), for which the GI50 in the test with DMS-273 was 27.4 µM (inactive); in the test with SNB-78, > 100 µM (inactive); in the test on KM-20L2 it was > 100 µM (inactive); in the test on DLD-1, 17.9 µM (inactive); in the test on HOP-18, > 100 µM (inactive); in the test on M19-MEL, > 100 µM (inactive). Further, the GI50 in the test with XF498 is > 100 µM (inactive); with DMS-114, 14.2 µM (inactive).
Take `Cn1ncc2c(c1=O)Nc1ccccc1S2(=O)=O`: the GI50 with DMS-273, in the test with SNB-78, in the test on KM-20L2, in the test on DLD-1, in the test on HOP-18 and in the test with M19-MEL was > 100 µM (inactive) throughout. In addition, the GI50 in the test with DMS-114 is 22 µM (inactive).
As for `Cc1cc(NCCCCCCCNc2cc(C)nc3cc(N)ccc23)c2ccc(N)cc2n1`, the GI50 is 40.3 µM (inactive) in the test with SNB-78; 34.2 µM (inactive) in the test with KM-20L2; 28.8 µM (inactive) with DLD-1; 32.2 µM (inactive) in the test on M19-MEL; 17.2 µM (inactive) in the test with XF498; 1.57 µM (inactive) with DMS-114.
Turning to `CCCCN[C@H]1C2C3CC4C5CC(C42)C1(C)C53` (stereo partly drawn), the GI50 in the test on DMS-273, in the test with SNB-78, in the test with KM-20L2, in the test with DLD-1, with HOP-18 and with M19-MEL was > 100 µM (inactive) throughout. The GI50 in the test on DMS-114 is > 100 µM (inactive).
For `COC(=O)c1ccc(N/C=C(/C#N)c2ccsc2)cc1`, the GI50 was 14.8 µM (inactive) with DMS-273; 15 µM (inactive) in the test on SNB-78; 12 µM (inactive) with KM-20L2; 13 µM (inactive) in the test with DLD-1; 34 µM (inactive) in the test with M19-MEL; 15 µM (inactive) in the test on DMS-114.
